Source: patent US12178825B2, “Method and compositions for forming a copper-containing complex and uses thereof” (COLD SPRING HARBOR LABORATORY, priority 2017, dated 2024)
Entries after “also recorded” stand apart in the source; their conditions may differ.

How the values were obtained:
SUM159 = assay: Cell survival; format: cell-based
Method: (§1) The MTT assay was used to evaluate cell survival in the absence and presence of different compounds. The thiazolyl blue tetrazolium bromide (MTT) was dissolved in phosphate buffered saline (PBS) at a concentration of 5 mg/ml, filtered, and stored at 4° C. About 10,000 cells were seeded into a 96-well plate and cultured in growth medium containing serum. After 24 hours, cells were treated with the indicated concentrations of DPM-1001 or DPM-1003 (0-100 uM) for 2 hrs. Following which 20 μl MTT was added into each well. An ELISA plate reader (Biotek, Winooski, Vermont, USA) was used to measure the optical density at 490 nm.

HCC70 cells = assay: Cell survival; format: cell-based
Method: as §1

SUM149 cells = assay: Cell survival; format: cell-based
Method: as §1

MCF-7 = assay: Cell survival; format: cell-based
Method: as §1

MDA-MB-468 cells = assay: Cell survival; format: cell-based
Method: as §1

MDA-MB-231 cells = assay: Cell survival; format: cell-based
Method: as §1
MDA-MB-231 cells (1×10^5) were seeded in 6 cm plates in growth medium. The cells were untreated or treated with DPM-1001 (0.5, 1, 2 and 5 μM), DPM-1003 (0.5, 1, 2 and 5 μM) or TTM (25, 50, 100 μM) for 1 h. Following which, media was gently aspirated and cells were washed with PBS. To each plate 0.5 ml of crystal violet (0.5%) was added and incubated in dark for 10 minutes at room temperature. The staining solution was removed and plates were washed with PBS (three times). The cells stained with the dye were imaged.

[1] = system: AZD6244-insensitive cells; assay: Immunoblot of phospho-MEK and phospho-Erk; format: cell-based; conditions: AZD6244-insensitive (resistant) cells
Excerpt: (§2) Equal quantities of lysates were isolated from indicated cell lines and then resolved by SDS-PAGE and immunoblotted with one of the following primary antibodies: mouse anti-MEK1/2, rabbit anti-p-PAK1, rabbit anti-PAK1, rabbit anti-ERK1/2, rabbit anti-phospho(Ser 217/221)-MEK1/2, rabbit anti-phospho(Thr 202/Tyr 204)-ERK1/2, rabbit anti-phospho (Ser 338)-c-RAF, rabbit anti-RAF, rabbit anti-phospho (Ser 112)-BAD and rabbit anti-BAD (Cell Signaling Technology), mouse anti-β-actin (Sigma), followed by detection with one of the following horseradish peroxidase-conjugated secondary antibodies: goat anti-rabbit IgG, goat anti-mouse IgG (Invitrogen), mouse anti-rabbit light-chain-specific IgG (Jackson ImmunoResearch Laboratories) using enhanced chemiluminescence (ECL; GE Healthcare) or SuperSignal West Femto Chemiluminescent substrate (Pierce) detection reagents.

AZD6244-sensitive cells = assay: Immunoblot of phospho-MEK and phospho-Erk; format: cell-based; conditions: 1-2 μM AZD6244
Excerpt: as §2

TX mice = assay: Tissue and fecal copper levels (ICP-MS, rhodanine staining); format: in vivo, mouse
Method: C3He-Atp7b^tx-j were obtained from the Jackson laboratory. All animal experiments were performed according to protocols approved by the Institutional Animal Use and Care Committee of Cold Spring Harbor laboratory. Mice were injected intraperitoneally (i.p.) with vehicle, or administered DPM-1001 intraperitoneally or orally at 5 mg/kg once every third day, for over a year. At the end of the study animals were euthanized and tissue samples were removed for biochemical studies.
Tissue samples from wild-type or TX mice treated with saline, DPM-1001 or tetrathiomolybdate was washed three times with PBS containing 1 mM EDTA (to remove nonspecifically bound copper). Then, 215 μl of concentrated nitric acid (BDH Aristar Ultra) was added to each sample and incubated overnight. Samples were boiled at 95° C. for 1 h. and approximately 150 μl of each sample was further diluted in 2 ml 2% nitric acid (made freshly from concentrated nitric acid and Milli-Q water) Samples were analyzed on a Thermo Fisher iCAP Qc ICP mass spectrometer in kinetic energy discrimination (KED) mode against a calibration curve of known copper and phosphorus concentrations, with Ga (20 μg/l, Inorganic Ventures) as an internal standard, Each experiment was carried out twice and each condition was repeated in at least triplicate.
Liver tissues from wild-type and TX mice from untreated and DPM-1001-treated mice were sectioned and stained with H&E or rhodanine. Whole-slide, digitized images of H&E-stained tissue were captured using the Aperio ScanScope XT automated scanning system (Vista, CA). Image J software was used to quantitate rhodanine staining.

[2] = ESI-MS analysis of complex formation with a series of other metal ions; format: binding; conditions: panel of metals
Method: (§3) Eight equivalents of M(NO3)2·xH2O or MSO4·xH2O were reacted with 1 eq. of DPM-1001, DPM-1003 or analog 2 (1 mM in H2O). The reaction solutions were stirred at RT, 40° C. and 80° C. for 2 h. Each sample was diluted 5-fold in 50% methanol, 0.1% formic acid and loaded into a 500 μL syringe. A Thermo Vantage triple quadrupole mass spectrometer (Thermo Scientific), equipped with an HESI spray source was coupled to an Accela HPLC system (Thermo Scientific). Mobile phase A consisted of 0.1% formic acid and mobile phase B consisted of 0.1% formic acid in methanol. Isocratic flow was set to 50% B at 200 μL/min. 200 μl samples were injected into the LC flow line via syringe pump at 10 μL/min and electrosprayed into the Vantage triple quadrupole mass spectrometer. A spray voltage of 4.3 kV was used along with a capillary temperature of 350° C. Each full MS scan was 0.5 s and data were collected with a scan range of 200 m/z to 900 m/z over 1 min.

[3] = ESI-MS analysis of complex formation with copper salts; format: binding; conditions: for Percentage (binding percentage): DPM-1013:Cu = 1:8
Method: Eight equivalents of M(NO3)2·xH2O or MSO4·xH2O (M=Cu, Zn) were reacted with 1 eq. of DPM-1001 (1 mM in H2O). The reaction solutions were stirred at RT, 40° C. and 80° C. for 2 h. Mass spectra were recorded on a Bruker Esquire 6000 HCT quadrupole ion trap instrument (Bruker Daltonik GmbH, Leipzig, Germany), equipped with an electrospray ionization (ESI) source. Generation of the molecular formula of the DPM-1001/Cu(II) species and the comparison between the theoretical (simulated) and the measured isotopic patterns was performed using the DataAnalysis 4.0 software (Bruker).
as §3
Binding of compounds of Formula I other than DPM-1001 was also confirmed. In an ESI-MS test, compound DPM-1013 as hydrochloride salt was dissolved in distilled water at a concentration of 2 mM freshly before testing. It was then mixed with an equal volume copper sulfate (16 mM) or copper chloride solution (16 mM) for 2 h, rendering a concentration of DPM-1013 at 1 mM and the copper salt 8 mM. The mixture was then further diluted 100-fold before injection into an ESI-MS, making a final concentration of DPM-1013 of 10 μM and Cu 80 μM in the test.
Binding percentage=peak intensity of all DPM-1013-Cu complex/(peak intensity of all DPM-1013-Cu complex+peak intensity of free DPM-1013).

PTP1B1-405 = target: T1, PTP1B1-405 (Homo sapiens, UniProt P18031); assay: PTP1B phosphatase activity assay, DiFMUP substrate, long form; format: biochemical
T1 construct: PTP1B1-405 (the long form of PTP1B which contains the extended C-terminal segment); made in house; host or cells: Escherichia coli BL21 (DE3)-RIL
T1 sequence (P18031 1-405): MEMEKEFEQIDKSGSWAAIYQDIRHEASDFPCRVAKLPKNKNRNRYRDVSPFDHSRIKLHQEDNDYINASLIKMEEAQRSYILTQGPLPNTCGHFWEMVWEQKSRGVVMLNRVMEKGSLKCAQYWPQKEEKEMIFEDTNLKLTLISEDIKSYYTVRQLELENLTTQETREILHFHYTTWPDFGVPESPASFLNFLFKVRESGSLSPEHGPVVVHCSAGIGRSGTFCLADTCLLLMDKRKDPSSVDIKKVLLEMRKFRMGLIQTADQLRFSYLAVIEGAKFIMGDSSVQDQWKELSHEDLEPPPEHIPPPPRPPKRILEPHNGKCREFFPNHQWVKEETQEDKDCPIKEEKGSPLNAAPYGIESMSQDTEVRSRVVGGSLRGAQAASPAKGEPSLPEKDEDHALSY
Method: (§4) All common reagents were obtained from Thermo Fisher Scientific (Waltham, MA) or Sigma-Aldrich (St. Louis, MO). Difluoro-4-methylumbelliferyl phosphate (DiFMUP) was obtained from Invitrogen (cat #D22065). Solid black 384-well plates (cat #3573) for phosphatase assays were from Corning Incorporated (Corning, NY).
(§5) Wild-type PTP1B containing a His-tag was expressed in Escherichia coli BL21 (DE3)-RIL using LB. Cells were resuspended in lysis buffer (50 mM Hepes pH 7.2, 150 mM NaCl, 10 mM imidazole, 2 mM TCEP) with cOmplete EDTA-free Protease Inhibitor Cocktail (Roche), and then lysed using a sonicator at 4° C. Lysates were clarified by centrifugation. Initial protein purification was by gravity flow, nickel column chromatography. Protein was used immediately or stored at −80° C. in 50 mM HEPES pH 7.4, 100 mM NaCl, 2 mM dithiothreitol and 25% glycerol.

PTP1B-L192A/S372P = PTP1B-L192A/S372P (Homo sapiens, UniProt P18031, L192A/S372P); assay: Phosphatase assay with MSI-1436-resistant mutant; format: biochemical
Excerpt: as §4

PTP1B1-321 = target: T2, PTP1B1-321 (Homo sapiens, UniProt P18031); assay: PTP1B phosphatase activity assay, short form; format: biochemical; conditions: enzyme-inhibitor complex diluted, activity recovery monitored
T2 construct: C-terminally truncated PTP1B (1-321); made in house; host or cells: Escherichia coli BL21 (DE3)-RIL
T2 sequence (P18031 1-321): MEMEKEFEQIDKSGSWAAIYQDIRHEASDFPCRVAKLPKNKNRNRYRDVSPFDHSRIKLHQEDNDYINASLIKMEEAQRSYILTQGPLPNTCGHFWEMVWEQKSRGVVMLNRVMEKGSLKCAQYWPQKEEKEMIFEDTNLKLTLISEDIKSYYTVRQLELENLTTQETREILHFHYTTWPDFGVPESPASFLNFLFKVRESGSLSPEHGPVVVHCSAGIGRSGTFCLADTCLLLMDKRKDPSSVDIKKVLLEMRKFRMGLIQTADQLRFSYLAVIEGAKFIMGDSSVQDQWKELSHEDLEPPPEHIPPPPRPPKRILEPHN
Method: as §4, §5

Chain of PTP1B-L192A/S372P (P18031 whole entry L192A/S372P): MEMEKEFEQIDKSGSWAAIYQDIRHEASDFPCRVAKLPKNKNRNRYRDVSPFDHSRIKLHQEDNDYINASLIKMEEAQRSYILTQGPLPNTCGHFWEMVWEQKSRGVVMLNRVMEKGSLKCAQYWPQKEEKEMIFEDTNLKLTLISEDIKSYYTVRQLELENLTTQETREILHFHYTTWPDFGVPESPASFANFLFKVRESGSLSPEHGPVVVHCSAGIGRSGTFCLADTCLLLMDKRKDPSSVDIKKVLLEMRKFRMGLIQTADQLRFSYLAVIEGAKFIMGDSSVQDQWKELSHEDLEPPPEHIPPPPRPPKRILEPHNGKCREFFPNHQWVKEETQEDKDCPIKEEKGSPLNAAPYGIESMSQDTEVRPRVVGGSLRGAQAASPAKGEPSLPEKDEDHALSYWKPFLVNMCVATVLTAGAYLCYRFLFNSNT

Cn1cnc2c(F)c(Nc3ccc(Br)cc3Cl)c(C(=O)NOCCO)cc21 [AZD6244, 6-(4-bromo-2-chloroanilino)-7-fluoro-N-(2-hydroxyethoxy)-3-methylbenzimidazole-5-carboxamide]
survival of SUM159 cells (SUM159): inhibited cell survival | survival of HCC70 cells (HCC70 cells): without effect on survival | survival of SUM149 cells (SUM149 cells): without effect on survival | survival of MCF-7 cells (MCF-7): inhibited cell survival | survival of MDA-MB-468 cells (MDA-MB-468 cells): without effect on survival | survival of MDA-MB-231 cells (MDA-MB-231 cells): inhibited cell survival | phospho-MEK and phospho-Erk [1]: without effect | phospho-MEK and phospho-Erk (AZD6244-sensitive cells): reduced phospho-MEK and phospho-Erk

[SH-].[SH-].[S]=[Mo]=[S] [tetrathiomolybdate, reference compound]
copper levels in feces (TX mice; TX mice): only a small increase | copper levels in liver and brain (TX mice; TX mice, ICP-MS): prevented accumulation of copper in liver and brain | copper levels in kidney (TX mice; wild-type and TX mice, ICP-MS): caused accumulation of copper in the kidney; also recorded: dramatically elevated copper levels in the kidney

c1ccc(CNCCCCNCc2ccccn2)nc1 [Analog 2, N^1,N^4-bis(pyridin-2-ylmethyl)butane-1,4-diamine]
complex formation with other metals [2]: bound to all the metals tested | complex formation with copper [3]: Cu(II)-bound form

COC(=O)CC[C@@H](C)[C@H]1CC[C@H]2[C@@H]3[C@H](O)C[C@@H]4C[C@@H](NCCCCNCc5ccccn5)CC[C@]4(C)[C@H]3CC[C@]12C [DPM-1013]
complex formation with copper [3]: formed complexes with free Cu, CuSO4; also recorded: formed complexes with free Cu, CuCl2 | Percentage (binding percentage) ([3]; CuCl2): 74.29% | Percentage (binding percentage) ([3]; CuSO4): 82.23%

CC(C)[C@@H](CC[C@@H](C)[C@H]1CC[C@H]2[C@@H]3[C@H](O)C[C@H]4C[C@@H](NCCCNCCCCNCCCN)CC[C@]4(C)[C@H]3CC[C@]12C)OS(=O)(=O)O [MSI-1436, 3-N-1(spermine)-7,24-dihydroxy-5-cholestane 24-sulfate, reference compound]
reversibility of inhibition of PTP1B1-405 (PTP1B1-405; enzyme-inhibitor complex diluted, activity recovery monitored): reversible inhibitor | time until PTP1B activity recovers (PTP1B1-405; sample diluted 100-fold): ≤ 60 min | complex formation with copper [3]: does not form a complex with copper | sensitivity of PTP1B-L192A/S372P to inhibitor (PTP1B-L192A/S372P): insensitive | reversibility of inhibition of PTP1B1-321 (PTP1B1-321): reversible inhibitor
